Measured values published in publication PMC11796354, “Autoinducer-2 enhances the defense of Vibrio furnissii against oxidative stress and DNA damage by modulation of c-di-GMP signaling via a two-component system” (mBio, 2025).

Molecular target: AsrK (vfu_B00258)
Test: ITC in borate-depleted buffer; also inhibits autokinase activity of purified full-length AsrK
Format: binding, Vibrio furnissii

Compound CC(=O)C(=O)[C@@H](O)CO [DPD, 4,5-dihydroxy-2,3-pentanedione] has a Kd of 0.038 ± 0.004 µM.
